Measurements published in publication PMC4900566, “Pharmacokinetic-Pharmacodynamic Analysis on Inflammation Rat Model after Oral Administration of Huang Lian Jie Du Decoction” (PLoS ONE, 2016).
Read-outs that look alike come from different tables or passages of the source.

Experiment: Pharmacokinetics of HLJDD components in rat plasma after oral administration of HLJDD (LC-QqQ-MS, non-compartmental)
Type: in vivo, Sprague-Dawley rats
Conditions: oral HLJDD extract; for AUC%Extrap / AUMClast / Cmax1 / Cmax2 / HLλz / Tmax1 / Tmax2 / AUC(0-inf) / AUC(0-t) / MRT last / CL/F / Vd/F / AUCinf / AUClast / MRTlast / Vz/F: crude material 3.5 g/kg, plasma, n = 6; for mean AUClast, fold larger in the inflamed group than in the control group: inflamed vs normal rats; for Vd/F: read-out: Vz/F
Procedure: The rats were acclimatized to the facilities for 5 days and screened via the continuous determination of the rectal temperature for two days. […] The control group G1 was injected with the same volume of physiological saline. The ethics committees of Cisco North Biotechnology Co., Ltd. (Beijing, China) and the China Academy of Chinese Medical Sciences (Beijing, China) approved the experimental protocol.
For the PK-PD analysis, cannulas were implanted in each rat’s jugular vein (n = 22). To study the hepatic first-pass effect (HFPE), the jugular vein and the pyloric vein of each rat (n = 5) were cannulated according to the method described by Hye J. Chung et al. with slight modifications. Instead of the portal vein, the pyloric vein was cannulated to minimize the interference of blood flow in the portal vein [41]. The surgery was performed under anesthesia (3% chloral hydrate solution, intraperitoneal injection; 3.5 mL/kg) 5 days prior to the experiment. Rats with jugular vein intubation surgery were divided into four groups: a control group with HLJDD (G1, n = 6), aninflammatory group with HLJDD (G2, n = 6), aninflammatory group with physiological saline (G3, n = 5) and another inflammatory group with HLJDD (G4, n = 5). G1 and G2 were used for the pharmacokinetic study, while G3 and G4 were used for the pharmacodynamic study. Rats with jugular and pyloric vein cannulation for HFPE analysis were assigned to another inflammatory group with HLJDD (G5, n = 5).
The prepared HLJDD-EP solution was administered to the rats (G1, G2, G4 and G5) at 2 mL/100g body weight (crude material content: 3.5 g/kg) by oral gavage, and the G3 group was given the same volume of physiological saline. […] The rectal temperature of rats in the G3 and G4 groups was immediately monitored after each collection of blood. […] Samples were collected in heparinized Eppendorf tubes and centrifuged at 3000 rpm for 15 min. The plasma was stored at -80°C until assay.
The supernatant was dried with nitrogen at 40°C. The residue was re-dissolved in 100 μL of methanol and centrifuged at 15000 rpm for 10 min.
Liquid chromatographic separations of the analytes were performed using a Thermo Scientific Hypersil GOLD column (50 mm× 2.1 mm, 1.9 μm). The mobile phase consisted of acetonitrile (solvent A) and 0.1% formic acid in water (solvent B). […] The flow rate was 0.3 mL/min. The injection volume was 2 μL. […] The optimized ESI source parameters were as follows: gas temperature, 200°C; gas flow, 14 L/min; nebulizer pressure, 20 psi; sheath gas temperature, 400°C; and sheath gas flow, 11 L/min. Analytes were quantitated by monitoring the precursor-product combination in the DMRM mode using ion polarity switching (flavonoids and alkaloids were determined in the positive mode, while iridoids were detected in the negative mode). To ensure the desired abundance of each compound, the CE values and other parameters were optimized and illustrated as follows: cycle time, 300 ms; positive capillary voltage, 3000 v; negative capillary voltage, 2000 v; positive nozzle voltage, 1500 v; negative nozzle voltage, 1000 v; Delta EMV(+), 200 v; Delta EMV(-), 200 v. The optimized mass transition ion pairs (m/z) for analytes and the detection of the conditions of the compounds are shown in S1 Table.
Pharmacokinetic parameters of the determined compounds were processed by the non-compartmental method using Phoenix Winnonlin software (Pharsight Corporation, USA). Linear trapezoidal integration was used to calculate areas under the concentration-time curves (AUC) and areas under the first moment curves (AUMC). The mean residence time (MRT) was determined as AUMC/AUC. The plasma half-life (HLλz), maximum plasma concentration (Cmax), the time to reach Cmax (Tmax) and other parameters following the administration of HLJDD were determined from the observed data. The HFPE was defined as HCR: HCR% = 100×(AUC0−t in the pyloric vein-AUC0−t in the jugular vein)/AUC0−t in the pyloric vein.

[1] = male, Sprague-Dawley, rat, po, 3.5 g/kg, inflamed rats (group M)
[2] = male, Sprague-Dawley, rat, po, 3.5 g/kg, normal rats (group B)
[3] = male, Sprague-Dawley, rat, in vivo, po, 3.5 g/kg, inflamed rats (group M)
[4] = male, Sprague-Dawley, rat, in vivo, po, 3.5 g/kg, normal rats (group B)

Structure (SMILES)	AUC%Extrap (inflamed rats (group M))	AUMClast (inflamed rats (group M))	Cmax1 (inflamed rats (group M))	Cmax2 (inflamed rats (group M))	HLλz (inflamed rats (group M))	Tmax1 (inflamed rats (group M))	Tmax2 (inflamed rats (group M))	mean AUClast, fold larger in the inflamed group than in the control group	AUC(0-inf) [1]	AUC(0-t) [1]	MRT last [1]	AUC(0-inf) [2]	AUC(0-t) [2]	MRT last [2]	AUC%Extrap (normal rats (group B))	AUMClast (normal rats (group B))	Cmax1 (normal rats (group B))	Cmax2 (normal rats (group B))	HLλz (normal rats (group B))	Tmax1 (normal rats (group B))	further results
O=C(O)[C@H]1O[C@@H](Oc2cc3oc(-c4ccccc4)cc(=O)c3c(O)c2O)[C@H](O)[C@@H](O)[C@@H]1O [baicalin]	2.7±0.5%	175077.1±103375.1 h*h*ng/ml	2420.9 ± 922.5 ng/mL	1000.4 ± 298.1 ng/mL	4.7 ± 1.1 h	0.1 ± 0.04 h	9.3 ± 2.1 h	2.0 fold	16.8 ± 9.09 µg·h/mL	15.7 ± 9.3 µg·h/mL	10.1 ± 2.3 h	8.13 ± 0.906 µg·h/mL	7.88 ± 0.775 µg·h/mL	4.3 ± 0.3 h	2.9±2.3%	34124.1±4967.9 h*h*ng/ml	1828.8 ± 737.4 ng/mL	1580.1 ± 202.4 ng/mL	1.8 ± 0.4 h	0.09 ± 0.03 h	CL/F (male, Sprague-Dawley, rat, po, 3.5 g/kg, inflamed rats (group M), read-out: CL/F (converted)): 8.7 L/h/kg; Vd/F [1]: 58.8 ± 25.2 L/kg; CL/F (male, Sprague-Dawley, rat, po, 3.5 g/kg, normal rats (group B), read-out: CL/F (converted)): 15.5 L/h/kg; Vd/F [2]: 39.6 ± 7.1 L/kg; Tmax2 (normal rats (group B)): 4.3 ± 0.8 h
COc1ccc2cc3[n+](cc2c1OC)CCc1cc2c(cc1-3)OCO2 [berberine]	10.7±7.0%	22.6±8.6 h*h*ng/ml	0.5 ± 0.2 ng/mL	0.3 ± 0.3 ng/mL	9.1 ± 2.5 h	1.0 ± 0.6 h	10.8 ± 2.7 h	2.1 fold	0.0034 ± 0.0007 µg·h/mL	0.0027 ± 0.0008 µg·h/mL	8.4 ± 3.1 h	0.0018 ± 0.0006 µg·h/mL	0.0013 ± 0.0005 µg·h/mL	5.7 ± 3.5 h	25.9±15.5%	8.9±8.6 h*h*ng/ml	0.4 ± 0.1 ng/mL	0.1 ± 0.03 ng/mL	6.3 ± 3.5 h	0.6 ± 0.4 h	Tmax2 (normal rats (group B)): 8.0 ± 2.2 h
COC(=O)C1=CO[C@@H](O[C@@H]2O[C@H](CO)[C@@H](O)[C@H](O)[C@H]2O)[C@@H]2C(CO)=CC[C@H]12 [geniposide]	8.9±2.9%	1231.9±677.2 h*h*ng/ml	223.2 ± 43.7 ng/mL	–	1.6 ± 0.7 h	0.8 ± 0.3 h	–	2.9 fold	–	–	–	–	–	–	11.5±1.5%	192.5±74.8 h*h*ng/ml	171.6 ± 70.6 ng/mL	–	0.6 ± 0.3 h	0.7 ± 0.3 h	AUC(0-inf) [3]: 0.696 ± 0.363 µg·h/mL; AUC(0-t) [3]: 0.638 ± 0.323 µg·h/mL; MRT last [3]: 1.9 ± 0.8 h; CL/F (male, Sprague-Dawley, rat, in vivo, po, 3.5 g/kg, inflamed rats (group M), read-out: CL/F (converted)): 225 L/h/kg; Vd/F [3]: 372 ± 86.7 L/kg; AUC(0-inf) [4]: 0.24 ± 0.0821 µg·h/mL; AUC(0-t) [4]: 0.217 ± 0.0862 µg·h/mL; MRT last [4]: 0.9 ± 0.1 h; CL/F (male, Sprague-Dawley, rat, in vivo, po, 3.5 g/kg, normal rats (group B), read-out: CL/F (converted)): 412 L/h/kg; Vd/F [4]: 235 ± 94.2 L/kg
COc1ccc2c(c1O)-c1c(O)c(OC)cc3c1[C@H](C2)[N+](C)(C)CC3 [magnolflorine]	17.6±8.0%	97.9±55.4 h*h*ng/ml	6.0 ± 1.7 ng/mL	–	4.3 ± 2.2 h	0.6 ± 0.3 h	–	1.6 fold	–	–	–	–	–	–	6.2±2.4%	29.5±5.8 h*h*ng/ml	6.5 ± 1.1 ng/mL	–	1.6 ± 0.4 h	0.6 ± 0.2 h	AUCinf (inflamed rats (group M)): 0.0293 ± 0.0138 µg·h/mL; AUClast (inflamed rats (group M)): 0.0249 ± 0.0146 µg·h/mL; MRTlast (inflamed rats (group M)): 4.1 ± 1.9 h; Vz/F (inflamed rats (group M)): 607.8 ± 396.5 L/kg; AUCinf (normal rats (group B)): 0.017 ± 0.002 µg·h/mL; AUClast (normal rats (group B)): 0.016 ± 0.002 µg·h/mL; CL/F (normal rats (group B)): 142.6 ± 15.9 L/h/kg; MRTlast (normal rats (group B)): 1.8 ± 0.1 h; Vz/F (normal rats (group B)): 339.5 ± 97.3 L/kg
